Source: PubChem BioAssay (NCI)
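Cells were grown in 96-well plates and exposed to each compound for 48 hours at five concentrations; endpoints were interpolated linearly between bracketing concentrations, or set to the highest concentration if not reached. Abbreviation: GI50, concentration required for 50% inhibition of growth. TGI is the concentration that stops growth completely.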

Assays:
Assay in all cases: NCI anticancer screen, dose series, 48 h
T-47D breast = test system: T-47D breast
COLO 205 colon = test system: COLO 205 colon
SF-295 CNS = test system: SF-295 CNS
PC-3 prostate = test system: PC-3 prostate
BT-549 breast = test system: BT-549 breast
LOX IMVI melanoma = test system: LOX IMVI melanoma
NCI-H226 lung = test system: NCI-H226 lung
OVCAR-4 ovarian = test system: OVCAR-4 ovarian
SF-539 CNS = test system: SF-539 CNS
786-0 renal = test system: 786-0 renal

Compound | GI50 (T-47D breast) | TGI (T-47D breast) | GI50 (COLO 205 colon) | TGI (COLO 205 colon) | GI50 (SF-295 CNS) | TGI (SF-295 CNS) | GI50 (PC-3 prostate) | TGI (PC-3 prostate) | GI50 (BT-549 breast) | TGI (BT-549 breast) | GI50 (LOX IMVI melanoma) | TGI (LOX IMVI melanoma) | GI50 (NCI-H226 lung) | TGI (NCI-H226 lung) | GI50 (OVCAR-4 ovarian) | TGI (OVCAR-4 ovarian) | GI50 (SF-539 CNS) | TGI (SF-539 CNS) | GI50 (786-0 renal) | TGI (786-0 renal)
Cc1ccc(S(=O)(=O)Cc2nc(-c3ccc(C(=O)NCc4cccnc4)cc3)oc2C)cc1 | 0.287 µM | > 100 µM | 0.492 µM | > 100 µM | 9.34 µM | > 100 µM | 0.224 µM | > 100 µM | 3.37 µM | > 100 µM | 8.12 µM | > 100 µM | > 100 µM | > 100 µM | 2.64 µM | > 100 µM | < 0.01 µM | > 35.5 µM | 20 µM | > 100 µM
Nc1c(C(=O)Nc2ccccc2F)sc2nc3c(cc12)C(=O)CCC3 | 6.79 µM | > 100 µM | 0.696 µM | 6.81 µM | 0.611 µM | > 92.6 µM | 0.959 µM | > 100 µM | – | > 52.5 µM | 8.58 µM | > 100 µM | 10.5 µM | > 100 µM | > 21 µM | > 100 µM | 0.817 µM | > 22.2 µM | 13.6 µM | > 100 µM
COc1ccc(C(=O)/C=C/c2ccc(OCC(=O)N3CCN(c4ccccc4)CC3)cc2)cc1 | – | > 100 µM | – | > 75.2 µM | – | 84.7 µM | – | > 100 µM | – | > 77.3 µM | – | > 100 µM | – | > 100 µM | – | > 100 µM | – | 51.7 µM | – | > 77.3 µM
CCN1C(=O)N(c2ccccc2)C2NN=c3s/c(=C4\C(=O)N(C(C)C)c5ccccc54)c(=O)n3C21 (stereo not given) | 0.716 µM | > 100 µM | 0.54 µM | 24.5 µM | 0.737 µM | 4.76 µM | 1.45 µM | > 77.3 µM | 1.8 µM | 18.9 µM | 2.17 µM | 11.2 µM | 3.7 µM | 31.4 µM | 3.71 µM | > 100 µM | 0.736 µM | 2.24 µM | 1.95 µM | 8.64 µM
C#CCOc1cccc(Nc2ncnc3ccc(NC(=O)CCl)cc23)c1 | 3.44 µM | 30.9 µM | 0.463 µM | 16.8 µM | 2.29 µM | 19.8 µM | 0.581 µM | 12.4 µM | 1.66 µM | 10.1 µM | 0.0933 µM | 3.89 µM | 7.43 µM | > 100 µM | 5.49 µM | 25.6 µM | 2.83 µM | 7.23 µM | 0.208 µM | 2.84 µM
CC1=C[S+](c2ccccc2)c2cccc3cc4ccccc4c1c23 (stereo not given) | 0.217 µM | 1.25 µM | 0.147 µM | 0.314 µM | 0.111 µM | 0.584 µM | 0.247 µM | 12.1 µM | 0.216 µM | 0.717 µM | 0.697 µM | 2.23 µM | 1.26 µM | 7.47 µM | 0.773 µM | 2.44 µM | 0.35 µM | 1.28 µM | 0.379 µM | –
CCCSC1=NC2C(N(CC)C(=O)N2CC)N1/N=C/C=C/c1ccccc1[N+](=O)[O-] (stereo not given) | 4.21 µM | > 100 µM | 3.13 µM | 56.5 µM | 2.74 µM | > 100 µM | 3.33 µM | > 100 µM | 2.6 µM | 8.5 µM | 3.08 µM | 20.7 µM | 3.32 µM | > 100 µM | 6.72 µM | > 100 µM | 2.13 µM | 5.8 µM | 4.61 µM | > 100 µM
CCc1nc(Cl)nc(Cl)c1Cl | – | 22 µM | – | 14.6 µM | – | 23.1 µM | – | 6.25 µM | – | 14.6 µM | – | 0.394 µM | – | 14.9 µM | – | 2.06 µM | – | 9.65 µM | – | 6.42 µM
Cc1nc2n(c(=O)c1CCN1CCC(c3noc4cc(F)ccc34)CC1)CCCC2 | > 50 µM | > 50 µM | > 50 µM | > 50 µM | > 50 µM | > 50 µM | > 50 µM | > 50 µM | > 50 µM | > 50 µM | > 50 µM | > 50 µM | > 50 µM | > 50 µM | > 50 µM | > 50 µM | > 50 µM | > 50 µM | > 50 µM | > 50 µM
COc1cnc2c(c1)C(=O)c1c-2n(CCCN2CCCC2)c(=O)c2cc(F)ccc12 | 0.218 µM | 10.2 µM | 0.109 µM | 2.64 µM | 0.202 µM | 0.755 µM | 0.42 µM | 12.8 µM | 0.85 µM | 6.43 µM | 0.185 µM | 0.558 µM | 0.164 µM | 0.382 µM | 0.365 µM | 11.3 µM | 0.36 µM | 1.48 µM | 0.257 µM | 1.11 µM
COC1=Nc2ccccc2S(=O)(=O)C=C1 | – | 14.2 µM | 0.695 µM | 4.01 µM | – | > 88.1 µM | – | 28.7 µM | 0.678 µM | 19.1 µM | – | 10.9 µM | – | > 100 µM | – | 27.8 µM | – | 33.3 µM | – | 10.1 µM
C/C(Cc1ccc(Cl)cc1)=C(/c1ccc(Cl)cc1)c1ccc(OCCN(C)C)cc1 | 3.83 µM | 9.92 µM | 1 µM | 4.53 µM | 5.5 µM | 10.3 µM | 4.34 µM | 9.21 µM | 4.95 µM | 10 µM | 3.02 µM | 7.18 µM | 4.99 µM | 10.5 µM | 3.52 µM | 7.57 µM | 4.77 µM | 9.22 µM | 4.55 µM | 9.78 µM
C=C(C)[C@@H]1CC[C@]2(COC3CCCCO3)CC[C@]3(C)[C@H](CC[C@@H]4[C@@]5(C)C=C(C=O)C(=O)C(C)(C)[C@@H]5CC[C@]43C)[C@@H]12 (stereo not given in full) | 1.33 µM | 3.01 µM | 1.62 µM | 3.48 µM | 1.5 µM | 2.96 µM | 1.1 µM | 2.71 µM | 1.42 µM | 2.78 µM | 1.36 µM | 2.73 µM | 1.95 µM | 4.43 µM | 2.01 µM | 3.89 µM | 1.21 µM | 2.58 µM | 1.65 µM | 3.09 µM
COc1ccc(-c2cc(-c3cc(OC)c(OC)c(OC)c3)c(C#N)c(N3CCOCC3)n2)cc1O | 25.4 µM | > 100 µM | 21.5 µM | > 100 µM | 6.38 µM | > 73.8 µM | 3.6 µM | > 100 µM | 19.9 µM | > 100 µM | 0.238 µM | 11.7 µM | > 100 µM | > 100 µM | 47.9 µM | > 100 µM | 2.52 µM | 12.5 µM | 51.2 µM | > 100 µM
